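Dose response: 5 concentrations. Exposure: 48 h. Format: 96-well plates. Endpoint: linear interpolation; highest concentration if not reached. GI50 is the concentration that inhibits growth by half.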 The source made the active and inactive calls. Rule as the data show it: active = GI50 up to about 1.1 µM and inactive = higher.
Tests used:
Assay in all cases: NCI anticancer screen, dose series, 48 h
DLD-1 = test system: DLD-1
DMS-114 = test system: DMS-114
DMS-273 = test system: DMS-273
HOP-18 = test system: HOP-18
LXFL 529 = test system: LXFL 529
M19-MEL = test system: M19-MEL
RXF 631 = test system: RXF 631
SNB-78 = test system: SNB-78
XF498 = test system: XF498

CC(=O)c1c(O)c2c([nH]c1=O)CCCC2
GI50 (DLD-1): 21.6 µM (inactive) | GI50 (DMS-114): 25.4 µM (inactive) | GI50 (DMS-273): 25.6 µM (inactive) | GI50 (HOP-18): > 100 µM (inactive) | GI50 (LXFL 529): > 100 µM (inactive) | GI50 (M19-MEL): 21 µM (inactive) | GI50 (RXF 631): 21.8 µM (inactive) | GI50 (SNB-78): > 100 µM (inactive) | GI50 (XF498): 64.6 µM (inactive)

Cc1c(Cl)cccc1NC(=O)/C(Cl)=C(\Cl)C(=O)O
GI50 (DLD-1): 18.2 µM (inactive) | GI50 (DMS-114): 21.2 µM (inactive) | GI50 (DMS-273): 20.9 µM (inactive) | GI50 (HOP-18): 17.5 µM (inactive) | GI50 (LXFL 529): 19.8 µM (inactive) | GI50 (M19-MEL): 17 µM (inactive) | GI50 (RXF 631): 24.8 µM (inactive) | GI50 (SNB-78): 20 µM (inactive)

CN(C)c1n/c(=N/c2ccc3ccccc3c2)ss1
GI50 (DLD-1): 15.4 µM (inactive) | GI50 (DMS-114): 9.06 µM (inactive) | GI50 (DMS-273): > 10 µM (inactive) | GI50 (HOP-18): 25.3 µM (inactive) | GI50 (LXFL 529): 9.1 µM (inactive) | GI50 (SNB-78): 42.6 µM (inactive)

COC(=O)C(Cc1ccccc1)NC(=O)Cn1ccnc1[N+](=O)[O-] (stereo not given)
GI50 (DMS-114): > 100 µM (inactive) | GI50 (DMS-273): > 100 µM (inactive) | GI50 (HOP-18): 67.8 µM (inactive) | GI50 (LXFL 529): > 100 µM (inactive) | GI50 (M19-MEL): 95.3 µM (inactive) | GI50 (RXF 631): > 100 µM (inactive) | GI50 (XF498): > 100 µM (inactive)

CN(C)CCC(/C=C/c1ccccc1)=N\Nc1ccc(Cl)c(Cl)c1
GI50 (DLD-1): 3.49 µM (inactive) | GI50 (DMS-273): 2.36 µM (inactive) | GI50 (HOP-18): 2.67 µM (inactive) | GI50 (LXFL 529): 2 µM (inactive) | GI50 (M19-MEL): 4.31 µM (inactive) | GI50 (RXF 631): 2.37 µM (inactive) | GI50 (SNB-78): 3.58 µM (inactive) | GI50 (XF498): 2.3 µM (inactive)

O=C(/C=C/c1ccc(Cl)cc1)c1ccncc1
GI50 (DLD-1): 41 µM (inactive) | GI50 (DMS-114): 48.1 µM (inactive) | GI50 (DMS-273): 69.3 µM (inactive) | GI50 (HOP-18): > 100 µM (inactive) | GI50 (LXFL 529): 60.5 µM (inactive) | GI50 (M19-MEL): 26.9 µM (inactive) | GI50 (RXF 631): 31.8 µM (inactive) | GI50 (SNB-78): > 100 µM (inactive)

Brc1ccccc1/C=N\C12CC3CC(CC(C3)C1)C2
GI50 (DLD-1): 1.41 µM (inactive) | GI50 (DMS-114): 5.77 µM (inactive) | GI50 (DMS-273): 11.3 µM (inactive) | GI50 (HOP-18): > 100 µM (inactive) | GI50 (LXFL 529): 10.3 µM (inactive) | GI50 (M19-MEL): > 76.6 µM (inactive) | GI50 (RXF 631): > 79.4 µM (inactive) | GI50 (SNB-78): > 91.4 µM (inactive) | GI50 (XF498): > 100 µM (inactive)

NC(=O)c1csc(C2C=CC(CO)O2)n1 (stereo not given)
GI50 (DMS-114): > 100 µM (inactive) | GI50 (DMS-273): > 100 µM (inactive) | GI50 (HOP-18): > 100 µM (inactive) | GI50 (LXFL 529): > 100 µM (inactive) | GI50 (RXF 631): > 100 µM (inactive) | GI50 (SNB-78): > 100 µM (inactive) | GI50 (XF498): > 100 µM (inactive)

Nc1nc2c(c(=O)[n-]1)[n+](CCO)cn2C1OC(CO)C(O)C1O (stereo not given)
GI50 (DLD-1): > 100 µM (inactive) | GI50 (DMS-114): > 100 µM (inactive) | GI50 (DMS-273): > 100 µM (inactive) | GI50 (HOP-18): > 100 µM (inactive) | GI50 (LXFL 529): > 100 µM (inactive) | GI50 (M19-MEL): > 100 µM (inactive) | GI50 (RXF 631): > 100 µM (inactive) | GI50 (SNB-78): > 100 µM (inactive) | GI50 (XF498): > 100 µM (inactive)

C=C(C(=C)P(=S)(C(C)C)C(C)C)P(=S)(C(C)C)C(C)C
GI50 (DLD-1): > 100 µM (inactive) | GI50 (DMS-114): > 100 µM (inactive) | GI50 (DMS-273): > 100 µM (inactive) | GI50 (LXFL 529): > 100 µM (inactive) | GI50 (M19-MEL): > 100 µM (inactive) | GI50 (RXF 631): > 100 µM (inactive) | GI50 (SNB-78): > 100 µM (inactive) | GI50 (XF498): > 100 µM (inactive)

COc1cc2c(cc1OC)C1Cc3cc(OC)c(OC)cc3N1CC2 (stereo not given)
GI50 (DLD-1): 39.8 µM (inactive) | GI50 (DMS-114): 15.1 µM (inactive) | GI50 (LXFL 529): 19.3 µM (inactive) | GI50 (M19-MEL): 13.3 µM (inactive) | GI50 (SNB-78): 39.8 µM (inactive) | GI50 (XF498): 18.5 µM (inactive)

O=C(CC1(O)C(=O)Nc2c(Cl)ccc(Cl)c21)c1ccc(Cl)cc1 (stereo not given)
GI50 (DLD-1): 38 µM (inactive) | GI50 (DMS-114): 24.1 µM (inactive) | GI50 (DMS-273): 27 µM (inactive) | GI50 (HOP-18): 44.2 µM (inactive) | GI50 (LXFL 529): 25.2 µM (inactive) | GI50 (M19-MEL): 18.4 µM (inactive) | GI50 (RXF 631): 23.8 µM (inactive) | GI50 (SNB-78): 49.1 µM (inactive) | GI50 (XF498): 19.1 µM (inactive)

O=C(O)c1c2c(cc3c(=O)c4ccccc4[nH]c13)CCCC2
GI50 (DMS-273): 83 µM (inactive) | GI50 (HOP-18): > 100 µM (inactive) | GI50 (LXFL 529): > 100 µM (inactive) | GI50 (M19-MEL): > 100 µM (inactive) | GI50 (RXF 631): > 100 µM (inactive) | GI50 (SNB-78): > 100 µM (inactive) | GI50 (XF498): > 100 µM (inactive)

CC(C)c1ccccc1NC(=O)CCc1n[nH]c(=S)o1
GI50 (DLD-1): > 54.5 µM (inactive) | GI50 (DMS-114): > 67 µM (inactive) | GI50 (DMS-273): > 54.3 µM (inactive) | GI50 (HOP-18): > 100 µM (inactive) | GI50 (LXFL 529): > 79.8 µM (inactive) | GI50 (M19-MEL): > 100 µM (inactive) | GI50 (RXF 631): > 100 µM (inactive) | GI50 (SNB-78): > 100 µM (inactive) | GI50 (XF498): > 100 µM (inactive)

C/C(CC(=O)NC1=CC=C(NC(=O)C/C(C)=N\Nc2ccccc2)CC1)=N/Nc1ccccc1
GI50 (DLD-1): > 100 µM (inactive) | GI50 (DMS-114): > 100 µM (inactive) | GI50 (DMS-273): 27 µM (inactive) | GI50 (HOP-18): > 100 µM (inactive) | GI50 (LXFL 529): > 100 µM (inactive) | GI50 (M19-MEL): > 100 µM (inactive) | GI50 (RXF 631): 41.4 µM (inactive) | GI50 (SNB-78): > 100 µM (inactive) | GI50 (XF498): > 100 µM (inactive)

Cc1nc2ccccc2[s+]c1-c1cnc(NC#N)nc1C(=O)Nc1cccc(Cl)c1
GI50 (DLD-1): > 100 µM (inactive) | GI50 (DMS-114): > 100 µM (inactive) | GI50 (DMS-273): > 100 µM (inactive) | GI50 (HOP-18): > 100 µM (inactive) | GI50 (LXFL 529): > 100 µM (inactive) | GI50 (M19-MEL): > 100 µM (inactive) | GI50 (SNB-78): > 100 µM (inactive)

COC(=O)C1=C(O)c2cc(-c3ccccc3)c(-c3ccccc3)c(C#N)c2NC(=O)C1
GI50 (DLD-1): 6.3 µM (inactive) | GI50 (DMS-114): 29.6 µM (inactive) | GI50 (DMS-273): 2.13 µM (inactive) | GI50 (HOP-18): < 0.01 µM (active) | GI50 (LXFL 529): 1.3 µM (inactive) | GI50 (M19-MEL): 14.5 µM (inactive) | GI50 (RXF 631): 3.56 µM (inactive) | GI50 (SNB-78): 14 µM (inactive) | GI50 (XF498): 49 µM (inactive)

Cc1cc(C)nc(NS(=O)(=O)c2ccc(Nc3c4ccccc4nc4c(C(=O)NCCN(C)C)cccc34)cc2)n1
GI50 (DLD-1): 5.15 µM (inactive) | GI50 (DMS-114): 1.04 µM (active) | GI50 (DMS-273): 0.813 µM (active) | GI50 (LXFL 529): 4.25 µM (inactive) | GI50 (M19-MEL): 3.44 µM (inactive) | GI50 (RXF 631): 0.986 µM (active) | GI50 (SNB-78): 11.5 µM (inactive) | GI50 (XF498): 13.7 µM (inactive)

Cc1cc2c(C)n[nH]c2c(C(=O)O)c1C
GI50 (DLD-1): > 100 µM (inactive) | GI50 (DMS-114): > 100 µM (inactive) | GI50 (DMS-273): > 100 µM (inactive) | GI50 (LXFL 529): > 100 µM (inactive) | GI50 (M19-MEL): > 100 µM (inactive) | GI50 (SNB-78): 36.2 µM (inactive) | GI50 (XF498): > 100 µM (inactive)

N#CC(C(=O)C(=O)C(C#N)c1ccc(Br)cc1)c1ccc(Br)cc1 (stereo not given)
GI50 (DLD-1): 14.3 µM (inactive) | GI50 (DMS-114): 12.1 µM (inactive) | GI50 (DMS-273): 12.1 µM (inactive) | GI50 (HOP-18): 11.4 µM (inactive) | GI50 (M19-MEL): 12.1 µM (inactive) | GI50 (SNB-78): 12.2 µM (inactive)

CCCNCCCCC(NC(C)=O)C(=O)NCc1ccccc1 (stereo not given)
GI50 (DLD-1): > 100 µM (inactive) | GI50 (DMS-114): > 100 µM (inactive) | GI50 (DMS-273): > 100 µM (inactive) | GI50 (LXFL 529): > 100 µM (inactive) | GI50 (M19-MEL): > 100 µM (inactive) | GI50 (RXF 631): > 100 µM (inactive) | GI50 (SNB-78): > 100 µM (inactive) | GI50 (XF498): > 100 µM (inactive)

CSC(C1c2ccccc2N(c2ccc(C)cc2)C2=NC(=O)N(C)C(=O)C21Cl)S(=O)(=O)c1ccc(C)cc1 (stereo not given)
GI50 (DLD-1): 16.3 µM (inactive) | GI50 (DMS-114): 19 µM (inactive) | GI50 (DMS-273): 20 µM (inactive) | GI50 (LXFL 529): 17.5 µM (inactive) | GI50 (M19-MEL): 23.7 µM (inactive) | GI50 (SNB-78): 27.9 µM (inactive) | GI50 (XF498): 30.8 µM (inactive)

COC1CC(n2cc(F)c(N)nc2=O)OC1CO (stereo not given)
GI50 (DLD-1): > 100 µM (inactive) | GI50 (DMS-114): > 100 µM (inactive) | GI50 (DMS-273): > 100 µM (inactive) | GI50 (HOP-18): 49.4 µM (inactive) | GI50 (LXFL 529): > 100 µM (inactive) | GI50 (RXF 631): > 100 µM (inactive) | GI50 (SNB-78): > 100 µM (inactive) | GI50 (XF498): > 100 µM (inactive)

CS(=O)(=O)CS(=O)(=O)OCCCl
GI50 (DLD-1): 333 µM (inactive) | GI50 (DMS-114): 86.7 µM (inactive) | GI50 (DMS-273): 236 µM (inactive) | GI50 (HOP-18): 438 µM (inactive) | GI50 (M19-MEL): 286 µM (inactive) | GI50 (SNB-78): 96.8 µM (inactive)
